Literature values, collected in patent US20110034478A1, “Oral Pharmaceutical Compositions in a Solid Dispersion Comprising Preferably Posaconazole and HPMCAs” (Schering-Plough Corporation, priority 2008, published 2011).

Legend:
[1] = not given; remark: listed apart in the source

solubility in water | pKa [1] | SMILES
practically insoluble | – | CC(C(=O)Nc1cc(-c2ccccc2)nn1-c1ccccc1)N(C)C (stereo not shown) [Difenamizole]
practically insoluble | – | N#Cc1ccc(C(c2ccc(C#N)cc2)n2cncn2)cc1 [Letrozole]
practically insoluble | 3.7 | CCC(C)n1ncn(-c2ccc(N3CCN(c4ccc(OC[C@H]5CO[C@](Cn6cncn6)(c6ccc(Cl)cc6Cl)O5)cc4)CC3)cc2)c1=O (mixture of isomers) [Itraconazole]
< 100 µg/mL | – | CC(C)N1CCN(c2ccc(OC[C@H]3CO[C@](Cn4cncn4)(c4ccc(Cl)cc4Cl)O3)cc2)CC1 (racemic) [Terconazole]
about 1 ug/ml | – | OC(Cn1cncn1)(Cn1cncn1)c1ccc(F)cc1F [Fluconazole]
poorly soluble | – | CCC(C)n1ncn(-c2ccc(N3CCN(c4ccc(OCC5CO[C@](Cn6cncn6)(c6ccc(F)cc6F)O5)cc4)CC3)cc2)c1=O (stereo partly shown) [Saperconazole]
